For data set [1], the system named is Capan-2 cell homogenates and cytosolic enzyme extracts. The data set can be described thus: Prodrug stability in cytosolic enzyme extract versus whole cell homogenate of Capan-2 cells. The data set is classed as in vitro ADME. The procedure:
In stability studies of test compounds in cell homogenates, the location of enzymes in living cells is not considered and the inaccessible enzymes in vivo condition may be able to degrade those analytes in this in vitro setting. Therefore, the result of prodrug stabilities in cell homogenate may be different to one in vivo, where all enzymes are arranged in all specific locations. The experiments of prodrug activation concerning the location of enzymes in cells were performed at 37 °C in Capan-2 cell homogenates and in cytosolic enzyme extracts. For the comparison purpose, the same experiments were performed at 37 °C in Caco-2 cell homogenates and in cytosolic enzyme extracts. […] The difference between them was minimal (1.4- to 2.5 fold). […] In Capan-2 cells, the stabilities of 5′-O-L-phenylalanyl-L-glycylfloxuridine and 5′-O-L-phenylalanylfloxuridine were improved 7.4- and 7.3-fold, while the ones of 5′-O-L- phenylalanyl-L-tyrosylfloxuridine and 5′-O-L-glycyl-L-leucylfloxuridine were declined 3.9- and 6.0-fold, respectively.
(§1) Preparation of Cytosolic Enzyme Extract. Confluent Caco-2 cells and Capan-2 cells (2 plates; 150 mm × 25 mm plate) were rinsed with saline twice. The cells were washed off with 1 mL of pH 7.4 phosphate buffer (10 mmol/L) and the enzymes were extracted through 30 gauge needle 10 times in ice-cold bath. Cell suspension was spun at 10,000 × g for 2 h at 4 °C and the supernatant was spun at 39,000 × g for 2 h at 4 °C. Protein amount was quantified with the Bio-Rad (Hercules, CA, USA) DC Protein Assay using bovine serum albumin as a standard. The protein amount was adjusted to 500 µg/mL and the hydrolysis reactions were carried out in 96-well plates (Corning). Caco-2 cells and Capan-2 cell suspensions (250 µL) were placed in triplicate wells either presence or absence of various inhibitors, the reactions were started with the addition of substrate (200 µM), and wells were incubated at 37 °C for 120 min (time points; 0, 5, 10, 30, 60, and 120 min). At each time point, aliquot sample (35 µL) was removed and added to 150 µL of acetonitrile (ACN) with 0.1% TFA to prevent the further degradation. The mixtures were filtered with a 0.45 µm filters at 1,000 × g for 10 min at 4 °C. The filtrate wasthen analyzed via reverse-phaseHPLC.
(§2) The initial rates of hydrolysis were used to obtain the apparent first-order rate constants and estimate the half-lives. The apparent first-order degradation rate constants of various floxuridine prodrugs at 37 °C were determined by plotting the logarithm of prodrug remaining as a function of time. The slopes of these plots are related to the rate constant, k, and given by:
(§3) The concentrations of prodrugs and their metabolites were determined on a Waters HPLC system (Waters, Inc., Milford, MA, USA). The HPLC system consisted of two Waters pumps (model 515), a Waters autosampler (WISP model 712), and a Waters UV detector (996 photodiode array detector). The system was controlled by Waters Millennium 32 software (version 3.0.1). Samples were injected onto a Waters Xterra C18 reverse-phase column (5 µm, 4.6 × 250 mm) equipped with a guard column. The compounds were eluted using gradient method. All prodrugs were run with the solvent B gradient changing 0% to 56% at a rate of 2%/min during a 28-min run. Standard curves generated for each prodrug and their parent drugs were used for quantitation of integrated area under peaks.

Another data set concerns Capan-2 cell homogenate. Kind of data set: Prodrug hydrolysis in Capan-2 cell homogenate with the presence and the absence of selective enzyme inhibitors. The conditions noted are these: for Half Life, DPP 3 Inhibitor: Capan-2 cell homogenate with 1,10-phenanthroline; for Half Life, DPP 3 Inhibitor / Half Life, TPP 2 Inhibitor / Half Life, Cathepsin D Inhibitor / Half Life, Aminopeptidase Inhibitor / Half Life, Capan-2 Cell Homogenate: 37 °C; for Half Life, DPP 3 Inhibitor / Half Life, TPP 2 Inhibitor / Half Life, Cathepsin D Inhibitor / Half Life, Aminopeptidase Inhibitor: pH 7.4; for Half Life, TPP 2 Inhibitor: Capan-2 cell homogenate with H-Ala-Ala-Phe-CMK CF3CO2H; for Half Life, Cathepsin D Inhibitor: Capan-2 cell homogenate with pepstatin A; for Half Life, Aminopeptidase Inhibitor: Capan-2 cell homogenate with puromycin; for Half Life, Capan-2 Cell Homogenate: no inhibitor, pH 7.4 phosphate buffer, 200 µM substrate, mean ± s.d. The class given is in vitro ADME. How it is done:
Hydrolysis StudiesPreparation of Capan-2 cell homogenates. Preparation of cell homogenates has been reported previously. Confluent Capan-2 cells (2 plates; 150 mm × 25 mm plate) were rinsed with saline twice. The cells were washed off with 5 mL of pH 7.4 phosphate buffer (10 mmol/L) and the lysed cells by ultrasonication (Micro ultrasonic cell disrupter Model KT40, Kontes, Vineland, NJ, USA) were spun down by centrifugation.
as §1, §2
k = 2.303 × slope (log C vs. time) (1)
The degradation half-lives were then estimated by the equation: […]
as §3

The next data set deals with Capan-2 cell lines. The data set can be described thus: Cell proliferation (XTT) assay. The data set is classed as cell-based. The conditions noted are these: 4 mmol/L, 4 h drug treatment. How it is done:
The percentage of growth inhibition for amino acid/dipeptide monoester prodrugs of floxuridine in Capan-2 cell was evaluated via 2,3-bis[2-methoxy-4-nitro-5-sulfophenyl]-2H-tetrazolium-5-carboxanilideinner salt (XTT) assays (Figure 3). The growth inhibitory effect of tested floxuridine prodrugs after 4 h drug treatment range from 0.0–91.1% at 4 h, 0.0–84.2% at 8 h, and 41.8–84.8% at 24 h in Capan-2 cell lines. […] While specific activation enzymes for 5′-O-L-leucyl-L-glycylfloxuridine and 5′-O-L-phenylalanylfloxuridine have not been identified, those enzymes may be highly localized at the plasma membrane and cytosol. Thus, the activation of those prodrugs took place immediately after translocation of prodrugs into the cells and started inhibiting tumor growth. Leucine and phenylalanine are reportedly good substrates for aminopeptidases and carboxylesterase, respectively.
Cell proliferation studies were conducted with Capan-2 cell lines. The cells were seeded into 96-well plates at […] per well and allowed to attach/grow for 24 h before drug solutions were added. The culture medium (RPMI-1640 + 10% fetal bovine serum) was removed and the cells were gently washed once with sterile pH 6.0 uptake buffer (145 mM NaCl, 0.5 mM MgCl2, 1 mM NaH2PO4, 1 mM CaCl2, 3 mM KCl, 5 mM glucose, and 5 mM MES). Floxuridine prodrugs and floxuridine were diluted in pH 6.0 uptake buffer to 4 mmol/L using no drug as a 100% viability control. The wash buffer was removed and 25 µL drug solution per well were added and incubated at 37 °C for 4 h in the cell incubator. After this time, the drug solutions were removed and the cells were again gently washed twice with sterile uptake buffer. RPMI-1640 was then added to each well after washing. The cells were allowed to recover for 4 h, 8 h, or 24 h before evaluating cell viability via 2,3-bis[2-methoxy-4-nitro-5-sulfophenyl]-2H-tetrazolium-5-carboxanilide inner salt (XTT) assays. […] Absorbance readings at 450 nm were recorded.

Details of data set [2]: method as in PMID 18719516. The conditions noted are these: pH 7.4 phosphate buffer; mean ± s.d.; ref [50]; cited from earlier work.
The next data set deals with T1, human cathepsin D (Homo sapiens, UniProt P07339).
T1 construct: cathepsin B (human liver), and cathepsin D (human liver) were obtained from Sigma Chemical Co; purchased Sigma Chemical Co (St. Louis, MO, USA); host or cells: human liver (tissue-derived)
T1 sequence (P07339 169-412 limits assumed): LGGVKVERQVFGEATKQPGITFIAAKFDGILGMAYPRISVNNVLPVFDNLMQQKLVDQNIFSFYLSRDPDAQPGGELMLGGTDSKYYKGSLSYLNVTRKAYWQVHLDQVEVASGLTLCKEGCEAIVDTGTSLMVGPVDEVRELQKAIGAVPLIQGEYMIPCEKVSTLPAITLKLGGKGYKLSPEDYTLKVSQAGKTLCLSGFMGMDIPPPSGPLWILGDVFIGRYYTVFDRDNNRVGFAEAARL
T1 sequence (P07339 65-162 limits assumed): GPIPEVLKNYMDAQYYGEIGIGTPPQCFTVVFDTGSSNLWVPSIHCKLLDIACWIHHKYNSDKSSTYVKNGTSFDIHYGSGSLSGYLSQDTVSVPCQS
The data set can be described thus: Prodrug stability with human cathepsin D. The class given is biochemical. The conditions noted are these: pH 7.4 phosphate buffer, 37 °C, 200 µM substrate. The text has this: (§4) The high expression levels of cathepsins in tumors have been reported. It has been investigated if the protein levels of cathepsin B and D would associate with pathological parameters in order to assess the difference in protein levels of cathepsins as possible tumor biomarkers. Cathepsin B, one of the highest gene expressions in enzymes of Capan-2 cell, is a cysteine endopeptidase and reportedly has similar activity to carboxypeptidase and peptidyl-dipeptidase. On the other hand, cathepsin D has been reported that it preferentially hydrolyzes the peptide bond of bulky hydrophobic amino acids and the peptide bond between Phe-Phe of Bz-Arg-Gly-Phe-Phe-Pro-4MbNA [75, 76, 77]. The metabolic stability of floxuridine prodrugs was assessed using human cathepsin B and D in pH 7.4 phosphate buffer. […] However, the enzyme specificity between cathepsin B and D in prodrug activation for those two prodrugs was not observed.
(§5) Prodrug stability with Cathepsin B and D. Lyophilized enzyme powder was dissolved and adjusted to 2.5 mg/mL of pure enzyme, human cathepsin B and D. The hydrolysis reactions were immediately started by adding substrates (200 µM) in 96-well plates (Corning). The reactions were carried out at 37 °C for 120 min (time points; 0, 5, 10, 30, 60, and 120 min). At each time point, aliquot sample (35 µL) was removed and added to 150 µL of acetonitrile (ACN) with 0.1% TFA. The mixtures were filtered with a 0.45 µm filters at 1,000 × g for 10 min at 4 °C. The filtrate was then analyzed via reverse-phase HPLC.
(§6) The initial rates of hydrolysis were used to obtain the apparent first-order rate constants and estimate the half-lives. The apparent first-order degradation rate constants of various floxuridine prodrugs at 37 °C were determined by plotting the logarithm of prodrug remaining as a function of time. […]
(§7) The concentrations of prodrugs and their metabolites were determined on a Waters HPLC system (Waters, Inc., Milford, MA, USA). […] Standard curves generated for each prodrug and their parent drugs were used for quantitation of integrated area under peaks.

The target in another data set is T2, human cathepsin B (Homo sapiens, UniProt P07858).
T2 construct: cathepsin B (human liver), and cathepsin D (human liver) were obtained from Sigma Chemical Co; purchased Sigma Chemical Co (St. Louis, MO, USA); host or cells: human liver (tissue-derived)
Kind of data set: Prodrug stability with human cathepsin B. The class given is biochemical. The conditions noted are these: pH 7.4 phosphate buffer, 37 °C, 200 µM substrate.
Description: as §4, §5, §6, §7

As to `CC(C)C[C@H](NC(=O)CN)C(=O)OC[C@H]1O[C@@H](n2cc(F)c(=O)[nH]c2=O)C[C@@H]1O` [5'-O-L-glycyl-L-leucylfloxuridine], the “Hydrolysis products detected in cell homogenates and cytosolic enzyme extracts” value (from here on “Hydrolysis products detected”) in data set [1] was “Floxuridine and amino acid mono ester prodrugs of floxuridine were observed”. Also, in the data set with Capan-2 cell homogenate (Capan-2 cell homogenate), the “Change of stability in all conditions (with and without enzyme inhibitors)” value is reported as “no change in its stability in all conditions”; the Hydrolysis products observed entry is “Amino acid monoester prodrugs of floxuridine and their parent drug were observed”.
On to `CC(C)C[C@H](N)C(=O)NCC(=O)OC[C@H]1O[C@@H](n2cc(F)c(=O)[nH]c2=O)C[C@@H]1O` [5'-O-L-leucyl-L-glycylfloxuridine], for which the “Onset of growth inhibition of tumor cells” value in the data set on Capan-2 cell lines is on record as “immediately inhibited the growth of tumor cells”. In addition, in data set [1], the “Hydrolysis products detected” value is “only floxuridine was detected”. Moreover, in the data set on Capan-2 cell homogenate, the “Half Life, DPP 3 Inhibitor” value is 32.2 ± 9.3 min; the “Half Life, TPP 2 Inhibitor” value was 5.6 ± 0.6 min; the “Half Life, Cathepsin D Inhibitor” value was found to be 7.9 ± 0.7 min; the “Half Life, Aminopeptidase Inhibitor” value came out at 14.0 ± 4.3 min. Further, the “Half Life, Capan-2 Cell Homogenate” value with Capan-2 cell homogenate turned out to be 3.9 ± 1.1 min. Also, the “Half Life, Phosphate Buffer pH 7.4” value in data set [2] was 23.1 ± 4.1 min.
With `N[C@@H](Cc1ccccc1)C(=O)N[C@@H](Cc1ccc(O)cc1)C(=O)OC[C@H]1O[C@@H](n2cc(F)c(=O)[nH]c2=O)C[C@@H]1O` [5'-O-L-phenylalanyl-L-tyrosyl-floxuridine], in data set [1], the “Hydrolysis products detected” value was “Floxuridine and amino acid mono ester prodrugs of floxuridine were observed”. Also, the “Fold decline of stability in cytosolic extract versus Capan-2 cell homogenate” value in data set [1] (37 °C, pH 7.4 phosphate buffer) amounted to 3.9 fold. Further, the “Stability (degradation) against cathepsin D compared with absence of enzyme” value at human cathepsin D was “significant degradation”. Also, in the data set on Capan-2 cell homogenate (Capan-2 cell homogenate), the “Change of half life with the presence of pepstatin A” value is “significantly prolonged”; the “Change of half lives with other enzyme inhibitors (not pepstatin A)” value is recorded as “not improved”; the Hydrolysis products observed entry is “Amino acid monoester prodrugs of floxuridine and their parent drug were observed”. In addition, in the data set with Capan-2 cell homogenate, the “Half Life, DPP 3 Inhibitor” value was 47.2 ± 3.6 min; the “Half Life, TPP 2 Inhibitor” value is recorded as 42.2 ± 1.3 min; the “Half Life, Cathepsin D Inhibitor” value amounted to 105.7 ± 12.8 min; the “Half Life, Aminopeptidase Inhibitor” value came out at 54.7 ± 2.8 min. Besides, in the data set with Capan-2 cell homogenate, the “Half Life, Capan-2 Cell Homogenate” value was determined as 42.8 ± 0.0 min. Moreover, the “Stability (degradation) against cathepsin B compared with absence of enzyme” value at human cathepsin B is listed as “significant degradation”. Also, the “Half Life, Phosphate Buffer pH 7.4” value in data set [2] is 233.9 ± 6.6 min.
Take `CC(C)[C@H](N)C(=O)N[C@@H](Cc1ccccc1)C(=O)OC[C@H]1O[C@@H](n2cc(F)c(=O)[nH]c2=O)C[C@@H]1O` [5'-O-L-valyl-L-phenylalanyl-floxuridine]: the “Hydrolysis products detected” value in data set [1] is “Floxuridine and amino acid mono ester prodrugs of floxuridine were observed”. Also, the “Stability (degradation) against cathepsin D compared with absence of enzyme” value on human cathepsin D is listed as “not a good substrate for cathepsins”. The Hydrolysis products observed entry in the data set on Capan-2 cell homogenate (Capan-2 cell homogenate) is “Amino acid monoester prodrugs of floxuridine and their parent drug were observed”. Besides, in the data set on Capan-2 cell homogenate, the “Half Life, DPP 3 Inhibitor” value is 67.7 ± 15.1 min; the “Half Life, TPP 2 Inhibitor” value is 46.1 ± 1.9 min; the “Half Life, Cathepsin D Inhibitor” value stood at 76.4 ± 6.1 min; the “Half Life, Aminopeptidase Inhibitor” value was 93.6 ± 29.3 min. The “Half Life, Capan-2 Cell Homogenate” value in the data set on Capan-2 cell homogenate turned out to be 56.2 ± 12.8 min. The “Stability (degradation) against cathepsin B compared with absence of enzyme” value on human cathepsin B is on record as “not a good substrate for cathepsins”. Further, the “Half Life, Phosphate Buffer pH 7.4” value in data set [2] is recorded as 104.7 ± 7.0 min.
Take `CC[C@H](C)[C@H](N)C(=O)NCC(=O)OC[C@H]1O[C@@H](n2cc(F)c(=O)[nH]c2=O)C[C@@H]1O` [5′-O-L-isoleucyl-L-glycylfloxuridine]: the “Hydrolysis products detected” value in data set [1] is given as “only floxuridine was detected”.

The values are drawn from paper PMC3565751, “The Feasibility of Enzyme Targeted Activation for Amino Acid/Dipeptide Monoester Prodrugs of Floxuridine; Cathepsin D as a Potential Targeted Enzym” (Molecules, 2012).
